# Laboratory results published in ChEMBL document CHEMBL2440027, “Further SAR studies on bicyclic basic merbarone analogues as potent antiproliferative agents” (Bioorg Med Chem, 2013).
# Experiments:
# Assay type in all cases: functional
# A498 = experiment: Growth inhibition of human A498 cells assessed as cell growth at 10 uM after 48 hrs by sulforhodamine B assay relative to control; conditions: A498, 48 h, read-out: Activity
# 786-0 [1] = experiment: Growth inhibition of human 786-0 cells assessed as cell growth at 10 uM after 48 hrs by sulforhodamine B assay relative to control; conditions: 786-0, 48 h, read-out: Activity
# IGROV-1 [2] = experiment: Growth inhibition of human IGROV1 cells assessed as cell growth at 10 uM after 48 hrs by sulforhodamine B assay relative to control; conditions: IGROV-1, 48 h, read-out: Activity
# SK-MEL-5 = experiment: Growth inhibition of human SK-MEL-5 cells assessed as cell growth at 10 uM after 48 hrs by sulforhodamine B assay relative to control; conditions: SK-MEL-5, 48 h, read-out: Activity
# SK-MEL-28 [3] = experiment: Growth inhibition of human SK-MEL-28 cells assessed as cell growth at 10 uM after 48 hrs by sulforhodamine B assay relative to control; conditions: SK-MEL-28, 48 h, read-out: Activity
# U-251 = experiment: Growth inhibition of human U251 cells assessed as cell growth at 10 uM after 48 hrs by sulforhodamine B assay relative to control; conditions: U-251, 48 h, read-out: Activity
# SF-295 = experiment: Growth inhibition of human SF295 cells assessed as cell growth at 10 uM after 48 hrs by sulforhodamine B assay relative to control; conditions: SF-295, 48 h, read-out: Activity
# SW-620 [4] = experiment: Growth inhibition of human SW620 cells assessed as cell growth at 10 uM after 48 hrs by sulforhodamine B assay relative to control; conditions: SW-620, 48 h, read-out: Activity
# HT-29 = experiment: Growth inhibition of human HT-29 cells assessed as cell growth at 10 uM after 48 hrs by sulforhodamine B assay relative to control; conditions: HT-29, 48 h, read-out: Activity
# HCT-116 [5] = experiment: Growth inhibition of human HCT116 cells assessed as cell growth at 10 uM after 48 hrs by sulforhodamine B assay relative to control; conditions: HCT-116, 48 h, read-out: Activity
# NCI-H23 [6] = experiment: Growth inhibition of human NCI-H23 cells assessed as cell growth at 10 uM after 48 hrs by sulforhodamine B assay relative to control; conditions: NCI-H23, 48 h, read-out: Activity
# K562 [7] = experiment: Growth inhibition of human K562 cells assessed as cell growth at 10 uM after 48 hrs by sulforhodamine B assay relative to control; conditions: K562, 48 h, read-out: Activity
# HL-60(TB) = experiment: Growth inhibition of human HL-60(TB) cells assessed as cell growth at 10 uM after 48 hrs by sulforhodamine B assay relative to control; conditions: HL-60, 48 h, read-out: Activity
# BT-549 = experiment: Growth inhibition of human BT549 cells after 48 hrs by sulforhodamine B assay; conditions: BT-549, 48 h; for CC50: read-out: LC50 (the source's name)
# [8] = Growth inhibition of human Hs 578T cells after 48 hrs by sulforhodamine B assay; conditions: for CC50: read-out: LC50 (the source's name)
# DU-145 = experiment: Growth inhibition of human DU145 cells after 48 hrs by sulforhodamine B assay; conditions: DU-145, 48 h; for CC50: read-out: LC50 (the source's name)
# ACHN [9] = experiment: Growth inhibition of human ACHN cells after 48 hrs by sulforhodamine B assay
# 786-0 [10] = experiment: Growth inhibition of human 786-0 cells after 48 hrs by sulforhodamine B assay; conditions: 786-0, 48 h
# [11] = Growth inhibition of human NCI-ADR-RES cells after 48 hrs by sulforhodamine B assay; conditions: for CC50: read-out: LC50 (the source's name)
# IGROV-1 [12] = experiment: Growth inhibition of human IGROV1 cells after 48 hrs by sulforhodamine B assay; conditions: IGROV-1, 48 h; for CC50: read-out: LC50 (the source's name)
# SK-MEL-28 [13] = experiment: Growth inhibition of human SK-MEL-28 cells after 48 hrs by sulforhodamine B assay; conditions: SK-MEL-28, 48 h; for CC50: read-out: LC50 (the source's name)
# SF-539 = experiment: Growth inhibition of human SF539 cells after 48 hrs by sulforhodamine B assay; conditions: SF-539, 48 h; for CC50: read-out: LC50 (the source's name)
# SW-620 [14] = experiment: Growth inhibition of human SW620 cells after 48 hrs by sulforhodamine B assay; conditions: SW-620, 48 h
# KM12 = experiment: Growth inhibition of human KM12 cells after 48 hrs by sulforhodamine B assay; conditions: KM12, 48 h
# HCT-15 = experiment: Growth inhibition of human HCT15 cells after 48 hrs by sulforhodamine B assay; conditions: HCT-15, 48 h
# [15] = Growth inhibition of human HCC2998 cells after 48 hrs by sulforhodamine B assay; conditions: HCC 2998, 48 h
# HCT-116 [16] = experiment: Growth inhibition of human HCT116 cells after 48 hrs by sulforhodamine B assay; conditions: HCT-116, 48 h
# COLO 205 = experiment: Growth inhibition of human COLO205 cells after 48 hrs by sulforhodamine B assay; conditions: COLO 205, 48 h; for CC50: read-out: LC50 (the source's name)
# NCI-H23 [17] = experiment: Growth inhibition of human NCI-H23 cells after 48 hrs by sulforhodamine B assay; conditions: NCI-H23, 48 h
# A549 = experiment: Growth inhibition of human A549/ATCC cells after 48 hrs by sulforhodamine B assay; conditions: A549, 48 h
# K562 [18] = experiment: Growth inhibition of human K562 cells after 48 hrs by sulforhodamine B assay; conditions: K562, 48 h
# CCRF-CEM = experiment: Growth inhibition of human CCRF-CEM cells after 48 hrs by sulforhodamine B assay
# MCF7 = experiment: Growth inhibition of human MCF7 cells assessed as cell growth at 10 uM after 48 hrs by sulforhodamine B assay relative to control; conditions: MCF7, 48 h, read-out: Activity
# ACHN [19] = experiment: Growth inhibition of human ACHN cells assessed as cell growth at 10 uM after 48 hrs by sulforhodamine B assay relative to control; conditions: read-out: Activity
smiles,measurement,setting,value
CN(C)CCNc1nc2c(c(=N)n1-c1ccccc1)c(=S)n(-c1ccccc1)c(=S)n2-c1ccccc1,growth at 10 µM,A498,40.3%
same,growth at 10 µM,786-0 [1],-83.5%
same,growth at 10 µM,IGROV-1 [2],36.3%
same,growth at 10 µM,SK-MEL-5,-98.8%
same,growth at 10 µM,SK-MEL-28 [3],-100%
same,growth at 10 µM,U-251,2.1%
same,growth at 10 µM,SF-295,-61.5%
same,growth at 10 µM,SW-620 [4],-59.1%
same,growth at 10 µM,HT-29,-35.7%
same,growth at 10 µM,HCT-116 [5],-22.1%
same,growth at 10 µM,NCI-H23 [6],67.6%
same,growth at 10 µM,K562 [7],-11.4%
same,growth at 10 µM,HL-60(TB),36.6%
same,GI50,BT-549,5.3 µM
same,TGI,BT-549,21.3 µM
same,CC50,BT-549,62.1 µM
same,GI50,[8],2.3 µM
same,TGI,[8],7.7 µM
same,CC50,[8],40 µM
same,GI50,DU-145,5.3 µM
same,TGI,DU-145,18.8 µM
same,CC50,DU-145,48.8 µM
same,GI50,ACHN [9],3.2 µM
same,LC50,ACHN [9],34.1 µM
same,TGI,ACHN [9],11.3 µM
same,GI50,786-0 [10],1.4 µM
same,LC50,786-0 [10],21.4 µM
same,TGI,786-0 [10],4.3 µM
same,GI50,[11],10.5 µM
same,TGI,[11],31 µM
same,CC50,[11],91 µM
same,GI50,IGROV-1 [12],8.1 µM
same,TGI,IGROV-1 [12],23 µM
same,CC50,IGROV-1 [12],57.5 µM
same,GI50,SK-MEL-28 [13],0.6 µM
same,TGI,SK-MEL-28 [13],2.1 µM
same,CC50,SK-MEL-28 [13],5.8 µM
same,GI50,SF-539,1.8 µM
same,TGI,SF-539,3.5 µM
same,CC50,SF-539,7 µM
same,GI50,SW-620 [14],2.1 µM
same,LC50,SW-620 [14],18.8 µM
same,TGI,SW-620 [14],5.1 µM
same,GI50,KM12,4.3 µM
same,LC50,KM12,49.9 µM
same,TGI,KM12,14.6 µM
same,GI50,HCT-15,1.4 µM
same,LC50,HCT-15,17.7 µM
same,TGI,HCT-15,4.5 µM
same,GI50,[15],2.3 µM
same,LC50,[15],43 µM
same,TGI,[15],6.8 µM
same,GI50,HCT-116 [16],2.7 µM
same,TGI,HCT-116 [16],16 µM
same,GI50,COLO 205,1.6 µM
same,TGI,COLO 205,3.8 µM
same,CC50,COLO 205,9.1 µM
same,GI50,NCI-H23 [17],16.8 µM
same,TGI,NCI-H23 [17],42.1 µM
same,GI50,A549,4.1 µM
same,LC50,A549,70.4 µM
same,TGI,A549,18.6 µM
same,GI50,K562 [18],0.4 µM
same,LC50 (concentration killing 50% of cells),K562 [18],6.8 µM
same,TGI,K562 [18],2.2 µM
same,GI50,CCRF-CEM,1.4 µM
same,LC50,CCRF-CEM,9.2 µM
same,TGI,CCRF-CEM,3.6 µM
same,growth at 10 µM,MCF7,17.9%
same,growth at 10 µM,ACHN [19],28.3%
CCCCN(CCCC)CCCNc1nc2c(c(=N)n1-c1ccccc1)c(=S)n(-c1ccccc1)c(=S)n2-c1ccccc1,growth at 10 µM,A498,-100%
same,growth at 10 µM,786-0 [1],-100%
same,growth at 10 µM,IGROV-1 [2],-70.9%
same,growth at 10 µM,SK-MEL-5,-100%
same,growth at 10 µM,SK-MEL-28 [3],-100%
same,growth at 10 µM,U-251,-100%
same,growth at 10 µM,SF-295,-100%
same,growth at 10 µM,SW-620 [4],-100%
same,growth at 10 µM,HT-29,-63.3%
same,growth at 10 µM,HCT-116 [5],-25%
same,growth at 10 µM,NCI-H23 [6],-56.3%
same,growth at 10 µM,K562 [7],-90.3%
same,growth at 10 µM,HL-60(TB),-74.8%
same,GI50,BT-549,1.5 µM
same,TGI,BT-549,3.2 µM
same,CC50,BT-549,6.7 µM
same,GI50,[8],0.5 µM
same,TGI,[8],1.9 µM
same,CC50,[8],5.5 µM
same,GI50,DU-145,1.1 µM
same,TGI,DU-145,2.3 µM
same,CC50,DU-145,4.8 µM
same,GI50,ACHN [9],0.5 µM
same,LC50,ACHN [9],4.1 µM
same,TGI,ACHN [9],1.6 µM
same,GI50,786-0 [10],0.2 µM
same,LC50,786-0 [10],0.8 µM
same,TGI,786-0 [10],0.4 µM
same,GI50,[11],1.6 µM
same,TGI,[11],3.3 µM
same,CC50,[11],8.1 µM
same,GI50,IGROV-1 [12],1.9 µM
same,TGI,IGROV-1 [12],3.8 µM
same,CC50,IGROV-1 [12],7.5 µM
same,GI50,SK-MEL-28 [13],0.2 µM
same,TGI,SK-MEL-28 [13],0.3 µM
same,CC50,SK-MEL-28 [13],0.7 µM
same,GI50,SF-539,1.2 µM
same,TGI,SF-539,2.7 µM
same,CC50,SF-539,5.7 µM
same,GI50,SW-620 [14],0.4 µM
same,LC50,SW-620 [14],3.7 µM
same,TGI,SW-620 [14],1.4 µM
same,GI50,KM12,0.4 µM
same,LC50,KM12,3.8 µM
same,TGI,KM12,1.5 µM
same,GI50,HCT-15,0.3 µM
same,LC50,HCT-15,3.4 µM
same,TGI,HCT-15,1.1 µM
same,GI50,[15],0.4 µM
same,LC50,[15],4.7 µM
same,TGI,[15],1.8 µM
same,GI50,HCT-116 [16],0.3 µM
same,TGI,HCT-116 [16],1.1 µM
same,CC50,HCT-116 [16]; read-out: LC50 (the source's name),3.4 µM
same,GI50,COLO 205,0.2 µM
same,TGI,COLO 205,1.4 µM
same,CC50,COLO 205,6 µM
same,GI50,NCI-H23 [17],1.6 µM
same,LC50 (concentration killing 50% of cells),NCI-H23 [17],8.4 µM
same,TGI,NCI-H23 [17],3.4 µM
same,GI50,A549,0.7 µM
same,LC50,A549,8.3 µM
same,TGI,A549,2.4 µM
same,GI50,K562 [18],0.2 µM
same,GI50,CCRF-CEM,0.1 µM
same,LC50,CCRF-CEM,0.6 µM
same,TGI,CCRF-CEM,0.3 µM
same,growth at 10 µM,MCF7,-88%
same,growth at 10 µM,ACHN [19],-95.8%
